Assay results as given in ChEMBL document CHEMBL3352674, “Pyrazolsulfonamide agonists of oxytocin receptor” (ACS Med Chem Lett, 2014).

Molecular target: T1, Oxytocin receptor (Homo sapiens, UniProt P30559)
T1 sequence (P30559 whole entry): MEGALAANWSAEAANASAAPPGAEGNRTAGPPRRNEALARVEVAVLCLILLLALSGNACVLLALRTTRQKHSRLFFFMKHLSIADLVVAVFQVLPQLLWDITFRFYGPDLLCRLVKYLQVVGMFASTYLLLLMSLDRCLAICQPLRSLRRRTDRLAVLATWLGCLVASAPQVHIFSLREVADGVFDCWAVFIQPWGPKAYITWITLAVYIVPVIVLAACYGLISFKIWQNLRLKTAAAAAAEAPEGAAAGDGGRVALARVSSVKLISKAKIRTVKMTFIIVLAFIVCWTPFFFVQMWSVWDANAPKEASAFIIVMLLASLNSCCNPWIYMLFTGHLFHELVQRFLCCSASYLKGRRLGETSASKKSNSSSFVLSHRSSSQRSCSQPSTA
Assay: Agonist activity at human oxytocin receptor expressed CHO cells assessed as calcium flux by FLIPR method
Format: functional, cell-based

| SMILES | EC50 [nM] |
| --- | --- |
| O=S(=O)(Nc1ccnn1-c1ccccn1)c1ccc(Cl)cc1F | 19 |
| O=S(=O)(Nc1ccnn1-c1ncc(C(F)(F)F)cn1)c1ccc(C(F)(F)F)cc1 | 1570 |
